# Read-outs that look alike come from different tables or passages of the source.
# Assays:
# [1] = target: T1, VMAT-2 (Rattus norvegicus, UniProt Q01827); conditions: read-out: [3H]DTBZ Binding Ki; mean ± SEM; rat brain synaptic vesicles; ref [15]; cited from earlier work
# [2] = target: T1, VMAT-2; conditions: read-out: [3H]DA uptake Ki; mean ± SEM; rat synaptic vesicles; ref [15]; cited from earlier work
# [3] = qualitative; ref [15]; cited from earlier work
# [4] = target: T1, VMAT-2; assay: [3H]DA uptake at VMAT-2, isolated rat synaptic vesicle preparations; format: biochemical; conditions: for fold more potent inhibiting [3H]DA uptake at VMAT-2 compared to 16: compared to N-2,3-dihydroxypropyl derivative 16
# T1 sequence (Q01827 whole entry): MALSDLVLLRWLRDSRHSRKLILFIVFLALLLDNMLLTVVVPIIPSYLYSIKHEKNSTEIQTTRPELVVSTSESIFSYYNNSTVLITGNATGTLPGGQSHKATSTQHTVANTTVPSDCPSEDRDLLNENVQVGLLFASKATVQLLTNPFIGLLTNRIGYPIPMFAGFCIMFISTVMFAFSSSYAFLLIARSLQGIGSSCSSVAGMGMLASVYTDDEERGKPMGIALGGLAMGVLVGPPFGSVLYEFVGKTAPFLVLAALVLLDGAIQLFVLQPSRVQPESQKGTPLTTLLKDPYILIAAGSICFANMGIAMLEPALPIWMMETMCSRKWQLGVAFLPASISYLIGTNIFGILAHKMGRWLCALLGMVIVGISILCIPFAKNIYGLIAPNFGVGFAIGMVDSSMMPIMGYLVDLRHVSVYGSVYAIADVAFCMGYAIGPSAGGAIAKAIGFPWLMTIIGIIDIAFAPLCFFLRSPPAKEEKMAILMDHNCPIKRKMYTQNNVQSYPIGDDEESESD
fold more potent inhibiting [3H]DA uptake at VMAT-2 compared to 16 [4],Structure (SMILES),water solubility [3],other results
–,c1ccc(CC[C@H]2CCC[C@@H](CCc3ccccc3)N2)cc1 [Norlobelane],less than optimal water-solubility,Ki [1]: 2310 ± 190 nM; Ki [2]: 43 ± 2 nM
about 6 fold,c1ccc2c(CC[C@H]3CCC[C@@H](CCc4ccnc5ccccc45)N3)ccnc2c1 [Compound 14],–,–
–,CN1[C@@H](CCc2ccccc2)CCC[C@H]1CCc1ccccc1 [Lobelane],less than optimal water-solubility,–
about 6 fold,c1ccc2nc(CC[C@H]3CCC[C@@H](CCc4ccc5ccccc5n4)N3)ccc2c1 [Compound 13],–,–
–,OC[C@H](O)CN1[C@@H](CCc2ccc3ccccc3n2)CCC[C@H]1CCc1ccc2ccccc2n1 [Compound 16],–,fold lower inhibitory potency than GZ-793A in vesicular [3H]DA uptake assay ([4]; compared to GZ-793A (Ki = […] nM)): 8 fold
–,CN1[C@@H](CCc2ccnc3ccccc23)CCC[C@H]1CCc1ccnc2ccccc12 [Quinlobelane],improved water solubility over lobelane and norlobelane,–

Structure (SMILES),fold more potent inhibiting [3H]DA uptake at VMAT-2 compared to 16 [4],water solubility [3],other results
c1cnc2ccc(CC[C@H]3CCC[C@@H](CCc4ccc5ncccc5c4)N3)cc2c1 [Compound 15],about 6 fold,–,–

# From paper PMC4457633 (Bioorganic & medicinal chemistry letters, 2015)
